{"source": "paper PMC3920478", "about": "“Small molecule-mediated refolding and activation of myosin motor function” (eLife, 2014)", "key": {"[1]": {"target": "T1, Dd myosin-5b motor domain (Dictyostelium discoideum, UniProt P54697)", "T1 construct": "Dd myosin-5b motor domain; His tag; made in house; host or cells: Dictyostelium discoideum AX3-ORF+ cells", "T1 sequence (P54697 1-821 limits assumed)": "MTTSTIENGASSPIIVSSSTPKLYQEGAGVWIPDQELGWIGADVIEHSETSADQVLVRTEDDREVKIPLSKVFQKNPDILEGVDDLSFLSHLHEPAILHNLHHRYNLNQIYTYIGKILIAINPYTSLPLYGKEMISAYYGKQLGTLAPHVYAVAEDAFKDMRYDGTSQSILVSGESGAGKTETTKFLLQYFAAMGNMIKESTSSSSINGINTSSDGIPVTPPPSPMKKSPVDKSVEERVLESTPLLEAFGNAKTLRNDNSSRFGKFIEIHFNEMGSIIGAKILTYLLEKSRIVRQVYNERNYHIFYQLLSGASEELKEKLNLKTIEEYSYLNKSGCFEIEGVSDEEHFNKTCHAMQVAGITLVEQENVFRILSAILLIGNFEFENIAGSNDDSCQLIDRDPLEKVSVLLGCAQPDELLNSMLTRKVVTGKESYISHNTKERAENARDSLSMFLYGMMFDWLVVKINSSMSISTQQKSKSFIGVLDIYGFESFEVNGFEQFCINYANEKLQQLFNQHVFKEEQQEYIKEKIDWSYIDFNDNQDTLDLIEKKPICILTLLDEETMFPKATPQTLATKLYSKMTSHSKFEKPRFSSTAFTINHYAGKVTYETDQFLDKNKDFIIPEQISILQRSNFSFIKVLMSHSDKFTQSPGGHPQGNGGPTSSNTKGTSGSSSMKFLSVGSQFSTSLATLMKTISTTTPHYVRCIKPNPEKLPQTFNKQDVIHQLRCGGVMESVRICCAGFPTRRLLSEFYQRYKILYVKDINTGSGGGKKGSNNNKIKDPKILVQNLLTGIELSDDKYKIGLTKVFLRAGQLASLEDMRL", "assay": "Steady-state basal and actin-activated Mg2+-ATPase (NADH-coupled assay)", "format": "biochemical", "protocol": "(§1) Proteolytic fragments were further purified by actin-coprecipitation.\n(§2) Basal and actin-activated Mg^2+-ATPase activities were measured using the NADH-coupled assay described previously ([Furch et al., 1998]) adapted for higher throughput screens for a temperature controlled plate reader (Multiscan FC, Thermo Scientific, Waltham, MA) at 25°C. EMD 57033 was added to the reaction mixture in the absence of nucleotide and incubated before the reaction was started by the addition of ATP. Control measurements were carried out in the absence of drug, as well as in the presence of according concentrations of the non-binding (−)-enantiomer EMD 57439 to account for possible absorption effects. […] Data points are mean values from 3 to 5 independent experiments. Error bars indicate standard deviations."}, "Dd myosin-2 motor domain": {"target": "T2, Dd myosin-2 motor domain (Dictyostelium discoideum, UniProt P08799)", "T2 sequence (P08799 1-761 limits assumed)": "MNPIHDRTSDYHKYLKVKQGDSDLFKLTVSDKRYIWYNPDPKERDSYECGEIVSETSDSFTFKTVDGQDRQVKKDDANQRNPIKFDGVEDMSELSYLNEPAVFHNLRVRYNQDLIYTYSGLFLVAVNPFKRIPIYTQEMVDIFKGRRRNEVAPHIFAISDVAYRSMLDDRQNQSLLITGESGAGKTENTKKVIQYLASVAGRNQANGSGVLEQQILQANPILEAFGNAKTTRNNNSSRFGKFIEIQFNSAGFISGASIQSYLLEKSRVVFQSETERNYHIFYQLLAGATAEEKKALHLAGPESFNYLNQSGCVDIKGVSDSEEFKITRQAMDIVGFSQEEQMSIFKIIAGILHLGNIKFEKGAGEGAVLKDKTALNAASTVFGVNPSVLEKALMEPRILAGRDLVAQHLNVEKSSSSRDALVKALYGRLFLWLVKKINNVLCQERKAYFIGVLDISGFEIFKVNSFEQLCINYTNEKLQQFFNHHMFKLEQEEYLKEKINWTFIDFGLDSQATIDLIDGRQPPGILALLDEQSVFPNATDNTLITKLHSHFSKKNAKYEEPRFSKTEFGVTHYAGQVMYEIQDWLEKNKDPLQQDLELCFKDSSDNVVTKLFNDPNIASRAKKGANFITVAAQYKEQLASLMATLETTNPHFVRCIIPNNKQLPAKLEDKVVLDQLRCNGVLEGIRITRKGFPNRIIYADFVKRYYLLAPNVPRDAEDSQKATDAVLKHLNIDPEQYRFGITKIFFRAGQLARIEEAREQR", "assay": "Steady-state basal and actin-activated Mg2+-ATPase (NADH-coupled assay)", "format": "biochemical", "protocol": "as §1, §2"}}, "data": [{"molecule": "COc1ccc(C(=O)N2CCCc3cc(C4=NNC(=O)SC4C)ccc32)cc1OC", "note": "(centres unmarked) [EMD 57033]", "values": [{"measurement": "AC50", "setting": "[1]", "value": 35.4, "unit": "µM"}, {"measurement": "Activation potency relative to β-cardiac myosin (weaker)", "setting": "[1]", "value": "fivefold"}, {"measurement": "Normalized maximal ATPase activation (basal)", "setting": "[1]", "value": 1.4}, {"measurement": "Normalized maximal ATPase activation (with 30 µM actin)", "setting": "[1]; 30 µM actin", "value": 1.6}, {"measurement": "AC50", "setting": "Dd myosin-2 motor domain", "value": 25.8, "unit": "µM"}, {"measurement": "Normalized maximal ATPase activation (basal)", "setting": "Dd myosin-2 motor domain", "value": 1.4}, {"measurement": "Normalized maximal ATPase activation (with 30 µM actin)", "setting": "Dd myosin-2 motor domain; 30 µM actin", "value": 2.8}, {"measurement": "Basal ATP turnover relative to that expected for 100% active protein", "setting": "Dd myosin-2 motor domain; saturating EMD 57033", "value": 1.4, "unit": "fold"}]}]}
